Data set [1] has as its system botrocetin induced platelet aggregation. In words: Inhibition of botrocetin induced platelet aggregation (BIPA) in human PRP. The data set is classed as cell-based. As to conditions: for IC90: human platelet rich plasma; for ≦200 nM aptamer gives >90% blocking in BIPA at 6 minutes: botrocetin induced platelet aggregation. Put shortly: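 Fresh human platelet-rich plasma, prewarmed at 37 degrees C, was preincubated one minute with aptamer (zero, 1 nM to 1000 nM) before botrocetin at a per-donor titrated aggregating concentration. Aggregation was followed as light transmittance; the value is the concentration blocking aggregation by 90% or greater after 6 minutes.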

The test system of data set [2] is full length human vWF (SEQ ID NO 7). In words: dot blot KD determination and extent of binding, full length human vWF.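 As to all read-outs here: dot blot binding of aptamers to full length human vWF across a protein titration, incubated 30 minutes at room temperature in 1x DPBS with BSA.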 Particulars: for % binding @ 100 nM vWF: extent of aptamer binding at 100 nM full length human vWF; for binding to human vWF: in words.
Data set [3] has as its system rabbit vWF A1 domain (SEQ ID NO 6). In words: 3-point dot blot screen, rabbit vWF A1 domain. It counts as binding. As to conditions: for Screen Rabbit/No Protein: 3-point dot blot screen, 20 nM rabbit vWF A1 domain, ratio of fraction of aptamer bound with target protein to fraction bound without protein; for Screen- Rabbit/No Protein: 100 nM rabbit vWF A1 domain, ratio of fraction bound with target to without. Summed up: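 Rabbit vWF A1 domain binding was screened by dot blot using three conditions: no target protein, human vWF, and rabbit vWF A1 domain at 100 nM (20 nM in the screen run twice). Radiolabeled aptamer bound to nitrocellulose was quantified, and results are expressed as the ratio of bound fraction with protein to bound fraction without protein.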

The mark [4] stands for this setting: Phase 3 modification, full length human vWF, dot blot, 8 point protein titration, read-out: KD.
Where [5] appears, read: Phase 4 and 5 modification, full length human vWF, read-out: KD.

Substitutions are numbered along the chain they refer to. Where two headings read alike, the source gives them in different places. Oligonucleotides are written 5' to 3', each unit as a sugar letter and its base; * is a phosphorothioate linkage, no mark a phosphodiester; rarer units and linkages stand in square brackets, end groups in braces. Plain capitals give the bases only. [invdT] = inverted (3'-3') thymidine; d = 2'-deoxy (DNA); m = 2'-O-methyl; r = 2'-OH (RNA); f = 2'-fluoro

Usually IC90 stands for the point of the concentration-response curve where the effect stands at 90%. A higher IC90 goes with weaker potency. What is called Kd is the equilibrium constant for the complex coming apart.

Sequence of rabbit vWF A1 domain (SEQ ID NO 6) (as listed by the source): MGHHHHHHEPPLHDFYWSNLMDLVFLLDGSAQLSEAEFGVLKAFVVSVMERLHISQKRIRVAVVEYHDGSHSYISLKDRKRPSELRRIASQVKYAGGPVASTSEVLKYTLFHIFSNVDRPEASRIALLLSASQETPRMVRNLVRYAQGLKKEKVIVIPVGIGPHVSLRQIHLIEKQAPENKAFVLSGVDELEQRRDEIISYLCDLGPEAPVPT

Take “PEG20K-NH2-mGmCmGmUdGdCdAmGmUmGmCmCmUmUmCmGmGmCdCmG-s-TmGdCdGdGTmGmCdCmUdCdCmGmUdCmAmCmGmC-3T [ARC1779]”: in data set [1], the concentration for an effect of 90% (IC90) is around 100 nM.

Turning to “dGdGdCdGTdGdCdAdGTdGdCdCTTdCdGdGdCdCdGTdGdCdGdGTdGdCdCTdCdCdGTdCdAdCdGdCdC-3T (DNA GGCGTGCAGTGCCTTCGGCCGTGCGGTGCCTCCGTCACGCC; DNA, [invdT] at 3' end, backbone and methylation of C not given here) [ARC1172, ARC1115 with 3'-inverted dT]”, the “% binding @ 100 nM vWF” value is 37% in data set [2] (Phase 1 modification); 37% in data set [2] (Phase 3 modification); 37% in data set [2] (Phase 4 and 5 modification). The dissociation constant (Kd) in data set [2] (Phase 1 modification, full length human vWF, dot blot, 8 point protein titration, read-out: KD) worked out at 2 nM; in data set [2] (setting [4]), 2 nM; in data set [2] (setting [5]) it was 2 nM. The “binding to human vWF” value in data set [2] (dot blot) was “shown to bind”. In addition, in data set [1], the IC90 is around 200 nM.

With “mGmCmGmUdGdCdAmGmUmGmCmCmUmUmCmGmGmCdCmG-s-TmGdCdGdGTmGmCdCmUdCdCmGmUdCmAmCmGmC-3T (GCGUGCAGUGCCUUCGGCCGTGCGGTGCCUCCGUCACGC; sugars from the 5' end mmmmdddmmmmmmmmmmmdmdmddddmmdmddmmdmmmm, [invdT] at 3' end, backbone not given here) [ARC1368]”, the “% binding @ 100 nM vWF” value in data set [2] (Phase 3 modification) was 38.2%; in data set [2] (Phase 4 and 5 modification) it was 38.2%. Besides, the Kd in data set [2] (setting [4]) and in data set [2] (setting [5]) was 1.8 nM each time. The “binding to human vWF” value in data set [2] (dot blot) was “affinity identical (within experimental error) to that of the parent compound”. Moreover, in data set [1], the IC90 is around 200 nM. The “inhibition of botrocetin induced platelet aggregation” value in data set [1] (in words, human PRP) is reported as “potency comparable to ReoPrO™”.

B1: AMX237.A2: DNA SELEX 2 aptamer clone (nucleic acid)
chain: CTACCTACGATCTGACTAGCTCCAGTGTTTCATCCAATAACCGTGCGGTGCCTCCGTGAGCTTACTCTCATGTAGTTCC
modifications: DNA, backbone and methylation of C not given here
notes: DNA SELEX 2 aptamer clone
Turning to B1, the “Screen Rabbit/No Protein” value in data set [3] amounted to 2.34.

B2: AMX238.G5: DNA SELEX 2 aptamer clone (nucleic acid)
DNA: B1 chain with C31T, C34T
modifications: DNA, backbone and methylation of C not given here
notes: DNA SELEX 2 aptamer clone
As to B2, the “Screen Rabbit/No Protein” value in data set [3] turned out to be 2.68.

B3: AMX237.B11: DNA SELEX 2 aptamer clone (nucleic acid)
DNA: B1 chain with C31T, C35T
modifications: DNA, backbone and methylation of C not given here
notes: DNA SELEX 2 aptamer clone
As to B3, the “Screen Rabbit/No Protein” value in data set [3] turned out to be 2.57.

B4: AMX237.A11: DNA SELEX 2 aptamer clone (nucleic acid)
chain: B1 chain with C31T
modifications: DNA, backbone and methylation of C not given here
notes: DNA SELEX 2 aptamer clone
With B4, in data set [3], the “Screen Rabbit/No Protein” value worked out at 2.38.

B5: AMX238.D12: DNA SELEX 2 aptamer clone (nucleic acid)
DNA: B1 chain with C34T
modifications: DNA, backbone and methylation of C not given here
notes: DNA SELEX 2 aptamer clone
In the case of B5, the “Screen Rabbit/No Protein” value in data set [3] is on record as 2.19.

B6: AMX206.D8: rRdY aptamer clone (nucleic acid)
chain: rGrGrArGdCrGdCrAdCdTdCrArGdCdCrAdCrGrAdCrGrGdTrGrAdTrGrGrAdTdTrArGdCrGdCrGrGdTrGrGrAdTdCdTdTrArAdCrGdTrGdCrGrArGdTdTdTdCrGrAdCdCdTdCdTdCdTrGdCdTrArGdC
In the case of B6, the “Screen- Rabbit/No Protein” value in data set [3] (rRdY aptamers) was 3.76.

B7: AMX205.H10: rRdY aptamer clone (nucleic acid)
chain: rGrGrArGdCrGdCrAdCdTdCrArGdCdCrAdCdTrGdTdTrGdCdCrGrAdCrGrGdTrGrAdTrGdTrAdTdTrArAdCrGdCrGrGrGdCrArAdCrGdTdTrGrGdTrGdTdTdTdCrGrAdCdCdTdCdTdCdTrGdCdTrArGdC
Regarding B7, in data set [3] (rRdY aptamers), the “Screen- Rabbit/No Protein” value turned out to be 2.47.

B8: AMX201.C8: rRfY aptamer clone (nucleic acid)
chain: rGrGrArGfCrGfCrAfCfUfCrArGfCfCrAfCfCfCfUfCrGfCrArArGfCrAfUfUfUfUrArArGrArAfUrGrAfCfUfUrGfUrGfCfCrGfCfUrGrGfCfUrGfUfUfUfUfCrGrAfCfCfUfCfUfCfUrGfCfUrArGfC
Regarding B8, the “Screen- Rabbit/No Protein” value in data set [3] (rRfY aptamers) is reported as 1.50. The “≦200 nM aptamer gives >90% blocking in BIPA at 6 minutes” value (“≦200 nM aptamer gives >90% blocking” below) in data set [1] is “yes”.

B9: AMX205.F7: rRdY aptamer clone (nucleic acid)
chain: rGrGrArGdCrGdCrAdCdTdCrArGdCdCrAdCrAdCrGrAdCrAdTdTrGrGdCrGrGrGdTdTrGdTrArAdTdTrAdCdCrAdCrGdCrAdTrGrGdCdTrGdTdTdTrGdTdTdTdCrGrAdCdCdTdCdTdCdTrGdCdTrArGdC
As for B9, the “Screen- Rabbit/No Protein” value in data set [3] (rRdY aptamers) came to 2.37. For the same molecule, the “≦200 nM aptamer gives >90% blocking” value in data set [1] is given as “yes”.

B10: AMX203.G9: rRdY aptamer clone (nucleic acid)
chain: rGrGrArGdCrGdCrAdCdTdCrArGdCdCrAdCrGrGrGrGdTrGrGrGdTrArGrAdCrGrGdCrGrGrGdTrAdTrGdTrGrGdCdTrGrGdTrGdTdCrGrArArGrGrGdTdTdTdCrGrAdCdCdTdCdTdCdTrGdCdTrArGdC
Take B10: in data set [3] (rRdY aptamers), the “Screen- Rabbit/No Protein” value was determined as 1.35. Further, the “≦200 nM aptamer gives >90% blocking” value in data set [1] is recorded as “yes”.

B11: AMX237.G6: DNA SELEX 2 aptamer clone (nucleic acid)
DNA: CTACCTACGATCTGACTAGCGTGCAGTGCCTATTCCAGGCCGTGCGGTGCCTCCGTCACGCTTACTCTCATGTAGTTCC
modifications: DNA, backbone and methylation of C not given here
notes: DNA SELEX 2 aptamer clone
As for B11, the “Screen Rabbit/No Protein” value in data set [3] is reported as 3.63. In data set [2] (dot blot, 12 point protein titration, 1xDPBS plus 0.1 mg/mL BSA, room temperature, 30 minutes, read-out: full length human vWF KD), the Kd stood at 0.2 nM. For the same molecule, the “≦200 nM aptamer gives >90% blocking” value in data set [1] is given as “yes”.

The record behind these values is patent US7998940B2, “Aptamers to von Willebrand factor and their use as thrombotic disease therapeutics” (Archemix Corp., priority 2004, dated 2011).
